Reference: PMC12751012, “Nanoscale Direct-to-Biology Optimization and Structural Insights into Selective S. aureus TrmD Inhibitors” (Journal of Medicinal Chemistry, 2025)

Target: T1, S. aureus TrmD (Staphylococcus aureus, UniProt Q2FZ43)
T1 construct: made in house; host or cells: E. coli BL21
T1 sequence (Q2FZ43 1-245): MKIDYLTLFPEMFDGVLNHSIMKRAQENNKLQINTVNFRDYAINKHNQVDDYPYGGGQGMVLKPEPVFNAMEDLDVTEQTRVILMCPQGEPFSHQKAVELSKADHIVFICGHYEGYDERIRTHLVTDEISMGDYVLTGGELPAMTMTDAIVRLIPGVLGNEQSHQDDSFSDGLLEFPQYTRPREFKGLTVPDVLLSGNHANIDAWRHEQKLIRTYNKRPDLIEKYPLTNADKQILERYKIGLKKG
Assay: nanoSAR direct-to-biology FP displacement screening of crude triazoles
Format: binding
Details: crude triazole at 1 μM, assuming full conversion; 500 nM TrmD, 10 nM tracer 4; read-out: % displaced tracer
In short: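 Crude CuAAC triazoles from alkyne 7 and 320 diverse azides were screened by FP displacement of 10 nM tracer 4 from 500 nM S. aureus TrmD. Buffer was 40 mM Tris HCl, 100 mM NaCl, 10 mM MgCl2, 5% glycerol, pH 7.5.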

O=c1[nH]cnc2[nH]cc(-c3cn(CCCN4CCCOCC4)nn3)c12 [Compound 02A10, O=C1NC=NC=2NC=C(C=3N=NN(C3)CCC[N@@H+]4CCOCCC4)C12]
inhibition at 1 µM: 23%

O=c1[nH]cnc2[nH]cc(-c3cn(-c4cccc5c4CCCC5)nn3)c12 [Compound 02A11, O=C1NC=NC=2NC=C(C=3N=NN(c4c5c(ccc4)CCCC5)C3)C12]
inhibition at 1 µM: 14%

O=c1[nH]cnc2[nH]cc(-c3cn(C4(C(F)F)CC4)nn3)c12 [Compound 02A12, FC(F)C1(N2N=NC(C=3C=4C(=O)NC=NC4NC3)=C2)CC1]
inhibition at 1 µM: 18%

O=c1[nH]cnc2[nH]cc(-c3cn(CCCCCO)nn3)c12 [Compound 02B01, O=C1NC=NC=2NC=C(C=3N=NN(C3)CCCCCO)C12]
inhibition at 1 µM: 27%

O=c1[nH]cnc2[nH]cc(-c3cn(-c4ccc5nccnc5c4)nn3)c12 [Compound 02B02, O=C1NC=NC=2NC=C(C=3N=NN(c4cc5nccnc5cc4)C3)C12]
inhibition at 1 µM: 8.54%

Cc1ccc(-n2cc(-c3c[nH]c4nc[nH]c(=O)c34)nn2)cc1Cl [Compound 02B03, Clc1c(ccc(N2N=NC(C=3C=4C(=O)NC=NC4NC3)=C2)c1)C]
inhibition at 1 µM: 0.61%

O=c1[nH]cnc2[nH]cc(-c3cn(C4CCOCC4)nn3)c12 [Compound 02B04, O=C1NC=NC=2NC=C(C=3N=NN(C3)C4CCOCC4)C12]
inhibition at 1 µM: 10%

O=c1[nH]cnc2[nH]cc(-c3cn(-c4ccc(-c5ccccc5)cc4)nn3)c12 [Compound 02B05, O=C1NC=NC=2NC=C(C=3N=NN(c4ccc(c5ccccc5)cc4)C3)C12]
inhibition at 1 µM: 3%

NS(=O)(=O)c1ccc(-n2cc(-c3c[nH]c4nc[nH]c(=O)c34)nn2)cc1 [Compound 02B06, S(=O)(=O)(N)c1ccc(N2N=NC(C=3C=4C(=O)NC=NC4NC3)=C2)cc1]
inhibition at 1 µM: 17%

O=c1[nH]cnc2[nH]cc(-c3cn(Cc4cccs4)nn3)c12 [Compound 02B07, S1C(=CC=C1)CN2N=NC(C=3C=4C(=O)NC=NC4NC3)=C2]
inhibition at 1 µM: 85%

COc1ccccc1C(C)(C)n1cc(-c2c[nH]c3nc[nH]c(=O)c23)nn1 [Compound 02B08, O=C1NC=NC=2NC=C(C=3N=NN(C3)C(c4c(OC)cccc4)(C)C)C12]
inhibition at 1 µM: 5.49%

CC[C@@H](c1ccccc1F)n1cc(-c2c[nH]c3nc[nH]c(=O)c23)nn1 [Compound 02B09, Fc1c(cccc1)[C@@H](N2N=NC(C=3C=4C(=O)NC=NC4NC3)=C2)CC]
inhibition at 1 µM: 24%

CC(C)(C)OC(=O)N1CC(c2ocnc2Cn2cc(-c3c[nH]c4nc[nH]c(=O)c34)nn2)C1 [Compound 02B10, O=C(OC(C)(C)C)N1C[C@H](C=2OC=NC2CN3N=NC(C=4C=5C(=O)NC=NC5NC4)=C3)C1]
inhibition at 1 µM: 37%

O=C(NCCCn1cc(-c2c[nH]c3nc[nH]c(=O)c23)nn1)c1c[nH]nn1 [Compound 02B11, O=C1NC=NC=2NC=C(C=3N=NN(C3)CCCNC(=O)C=4N=NNC4)C12]
inhibition at 1 µM: 10%

O=c1[nH]cnc2[nH]cc(-c3cn(CCO[C@H]4CCOC4)nn3)c12 [Compound 02B12, O=C1NC=NC=2NC=C(C=3N=NN(C3)CCO[C@@H]4COCC4)C12]
inhibition at 1 µM: 56%

Cc1ccc(O)c(Cn2cc(-c3c[nH]c4nc[nH]c(=O)c34)nn2)n1 [Compound 02C01, O=C1NC=NC=2NC=C(C=3N=NN(C3)Cc4nc(ccc4O)C)C12]
inhibition at 1 µM: 32%

O=c1[nH]cnc2[nH]cc(-c3cn(CCc4c[nH]c5ccccc45)nn3)c12 [Compound 02C02, O=C1NC=NC=2NC=C(C=3N=NN(C3)CCC=4c5c(NC4)cccc5)C12]
inhibition at 1 µM: 56%

O=c1[nH]cnc2[nH]cc(-c3cn(-c4ccc(Cl)cn4)nn3)c12 [Compound 02C03, Clc1cnc(N2N=NC(C=3C=4C(=O)NC=NC4NC3)=C2)cc1]
inhibition at 1 µM: -1.83%

O=c1[nH]cnc2[nH]cc(-c3cn(C[C@H](O)c4ccc(Cl)cc4)nn3)c12 [Compound 02C04, Clc1ccc(cc1)[C@@H](O)CN2N=NC(C=3C=4C(=O)NC=NC4NC3)=C2]
inhibition at 1 µM: 85%

O=c1[nH]cnc2[nH]cc(-c3cn([C@H]4CC5(CCCC5)Oc5ccc(Cl)cc54)nn3)c12 [Compound 02C05, Clc1cc2c(OC3(C[C@@H]2N4N=NC(C=5C=6C(=O)NC=NC6NC5)=C4)CCCC3)cc1]
inhibition at 1 µM: 55%

COC1([C@H](CO)n2cc(-c3c[nH]c4nc[nH]c(=O)c34)nn2)CCC1 [Compound 02C06, O=C1NC=NC=2NC=C(C=3N=NN(C3)[C@H](C4(OC)CCC4)CO)C12]
inhibition at 1 µM: 5%

O=c1[nH]cnc2[nH]cc(-c3cn(Cc4cn5cccnc5n4)nn3)c12 [Compound 02C07, O=C1NC=NC=2NC=C(C=3N=NN(C3)CC=4N=C5N=CC=CN5C4)C12]
inhibition at 1 µM: 82%

O=c1[nH]cnc2[nH]cc(-c3cn([C@H]4COCC[C@@H]4O)nn3)c12 [Compound 02C08, O=C1NC=NC=2NC=C(C=3N=NN(C3)[C@@H]4[C@@H](O)CCOC4)C12]
inhibition at 1 µM: 49%

O=c1[nH]cnc2[nH]cc(-c3cn(CC4CCNCC4)nn3)c12 [Compound 02C09, O=C1NC=NC=2NC=C(C=3N=NN(C3)CC4CC[NH2+]CC4)C12]
inhibition at 1 µM: 79%

O=c1[nH]cnc2[nH]cc(-c3cn(C4(c5ccc(F)cc5)CCOCC4)nn3)c12 [Compound 02C10, Fc1ccc(cc1)C2(N3N=NC(C=4C=5C(=O)NC=NC5NC4)=C3)CCOCC2]
inhibition at 1 µM: 6%

O=C(O)c1ccc(Cn2cc(-c3c[nH]c4nc[nH]c(=O)c34)nn2)cc1 [Compound 02C11, [O-]C(=O)c1ccc(cc1)CN2N=NC(C=3C=4C(=O)NC=NC4NC3)=C2]
inhibition at 1 µM: 43%

O=c1[nH]cnc2[nH]cc(-c3cn(-c4ccncc4)nn3)c12 [Compound 02C12, O=C1NC=NC=2NC=C(C=3N=NN(c4ccncc4)C3)C12]
inhibition at 1 µM: 18%

O=c1[nH]cnc2[nH]cc(-c3cn(CCCN4CCC(C(F)(F)F)CC4)nn3)c12 [Compound 02D01, FC(F)(F)[C@@H]1CC[N@H+](CC1)CCCN2N=NC(C=3C=4C(=O)NC=NC4NC3)=C2]
inhibition at 1 µM: 23%

COc1ccc(Cl)c(-n2cc(-c3c[nH]c4nc[nH]c(=O)c34)nn2)c1 [Compound 02D02, Clc1c(N2N=NC(C=3C=4C(=O)NC=NC4NC3)=C2)cc(OC)cc1]
inhibition at 1 µM: 3%

O=c1[nH]cnc2[nH]cc(-c3cn(-c4nccs4)nn3)c12 [Compound 02D03, S1C(=NC=C1)N2N=NC(C=3C=4C(=O)NC=NC4NC3)=C2]
inhibition at 1 µM: 7%

O=c1[nH]cnc2[nH]cc(-c3cn(C[C@@H]4CNCCO4)nn3)c12 [Compound 02D04, O=C1NC=NC=2NC=C(C=3N=NN(C3)C[C@H]4OCC[NH2+]C4)C12]
inhibition at 1 µM: 24%

N#Cc1ccc(-n2cc(-c3c[nH]c4nc[nH]c(=O)c34)nn2)cc1 [Compound 02D05, O=C1NC=NC=2NC=C(C=3N=NN(c4ccc(C#N)cc4)C3)C12]
inhibition at 1 µM: 1.83%

O=c1[nH]cnc2[nH]cc(-c3cn(C[C@@H]4CCOC4)nn3)c12 [Compound 02D06, O=C1NC=NC=2NC=C(C=3N=NN(C3)C[C@H]4COCC4)C12]
inhibition at 1 µM: 26%

CC(C)C(=O)NCCn1cc(-c2c[nH]c3nc[nH]c(=O)c23)nn1 [Compound 02D07, O=C1NC=NC=2NC=C(C=3N=NN(C3)CCNC(=O)C(C)C)C12]
inhibition at 1 µM: 41%

O=c1[nH]cnc2[nH]cc(-c3cn(-c4ccnc(CO)c4)nn3)c12 [Compound 02D08, O=C1NC=NC=2NC=C(C=3N=NN(c4cc(ncc4)CO)C3)C12]
inhibition at 1 µM: 25%

N[C@H]1CC[C@H](n2cc(-c3c[nH]c4nc[nH]c(=O)c34)nn2)CC1 [Compound 02D09, O=C1NC=NC=2NC=C(C=3N=NN(C3)[C@@H]4CC[C@@H]([NH3+])CC4)C12]
inhibition at 1 µM: 21%

N[C@]12CC[C@](n3cc(-c4c[nH]c5nc[nH]c(=O)c45)nn3)(CC1)C2 [Compound 02D10, O=C1NC=NC=2NC=C(C=3N=NN(C3)[C@]45C[C@]([NH3+])(CC4)CC5)C12]
inhibition at 1 µM: 11%

O=c1[nH]cnc2[nH]cc(-c3cn(CC[C@@H]4CCCC4(F)F)nn3)c12 [Compound 02D11, F[C@@]1(F)[C@H](CCN2N=NC(C=3C=4C(=O)NC=NC4NC3)=C2)CCC1]
inhibition at 1 µM: 75%

COc1cccc(OC)c1Cn1cc(-c2c[nH]c3nc[nH]c(=O)c23)nn1 [Compound 02D12, O=C1NC=NC=2NC=C(C=3N=NN(C3)Cc4c(OC)cccc4OC)C12]
inhibition at 1 µM: 18%

CC(C)(CN)Cn1cc(-c2c[nH]c3nc[nH]c(=O)c23)nn1 [Compound 02E01, O=C1NC=NC=2NC=C(C=3N=NN(C3)CC(C[NH3+])(C)C)C12]
inhibition at 1 µM: 54%

N#CCCCn1cc(-c2c[nH]c3nc[nH]c(=O)c23)nn1 [Compound 02E02, O=C1NC=NC=2NC=C(C=3N=NN(C3)CCCC#N)C12]
inhibition at 1 µM: 35%

O=c1[nH]cnc2[nH]cc(-c3cn([C@H]4CCCCC[C@@H]4O)nn3)c12 [Compound 02E03, O=C1NC=NC=2NC=C(C=3N=NN(C3)[C@@H]4[C@@H](O)CCCCC4)C12]
inhibition at 1 µM: 10%

NCCCCn1cc(-c2c[nH]c3nc[nH]c(=O)c23)nn1 [Compound 02E04, O=C1NC=NC=2NC=C(C=3N=NN(C3)CCCC[NH3+])C12]
inhibition at 1 µM: 16%

COc1ccc(Cn2cc(-c3c[nH]c4nc[nH]c(=O)c34)nn2)cc1 [Compound 02E05, O=C1NC=NC=2NC=C(C=3N=NN(C3)Cc4ccc(OC)cc4)C12]
inhibition at 1 µM: 78%

NC1(c2noc(Cn3cc(-c4c[nH]c5nc[nH]c(=O)c45)nn3)n2)CCCCCC1 [Compound 02E06, O=C1NC=NC=2NC=C(C=3N=NN(C3)CC=4ON=C(N4)C5([NH3+])CCCCCC5)C12]
inhibition at 1 µM: 24%

O=c1[nH]cnc2[nH]cc(-c3cn(Cc4cscn4)nn3)c12 [Compound 02E07, S1C=NC(=C1)CN2N=NC(C=3C=4C(=O)NC=NC4NC3)=C2]
inhibition at 1 µM: 80%

Nc1ccc(Cl)c(-n2cc(-c3c[nH]c4nc[nH]c(=O)c34)nn2)c1 [Compound 02E08, Clc1c(N2N=NC(C=3C=4C(=O)NC=NC4NC3)=C2)cc(N)cc1]
inhibition at 1 µM: 13%
